One may read the melting point as the temperature, or range, at which the solid turns liquid.

Each structure is given as a SMILES string. Converted amounts (≈) assume the structure as drawn.

Data set [1] concerns Trypanosoma cruzi (Tulahuen C2C4 strain). Kind of data set: American trypanosome protozoa growth inhibition screening test. The format is cell-based. The conditions noted are these: Trypanosoma cruzi, Table 5, in rat L6 cells, 96 hours, CPRG/Nonidet, read-out: 50% Growth inhibition concentration Trypanosoma cruzi. The method, then:
In the present experiment, amastigote and trypomastigote infected with rat L6 cells of protozoa of Trypanosoma cruzi (Tulahuen C2C4 starin) were used. As medium used in the test, RPMI 1640 medium containing L6 cells was supplemented so that L-glutamine (200 mM) become 1%, fetal bovine serum becomes 10%, which was cultured under CO2 concentration 5%, at 37° C.
The compounds of the present invention to be used in the present test and the positive control drug (benznidazole) were dissolved in DMSO to make a test solution of a predetermined concentration.
A medium containing 5×10^3 protozoa was added to wells of a 96-well culture plate, and pre-cultured for 48 hours. After replacing the medium, test solution containing drug of a predetermined concentration or a drug-free DMSO was added. Test solutions were taken by duplicates.
After culturing the culture plate in an incubator for 96 hours, growth inhibition activity was tested. Test was conducted as follows. 50 μL of CPRG/Nonidet was added to each well, and allowed to rest for 2 to 6 hours. Next, the culture plate was placed on a fluorescent micro-plate reader. The absorbance was measured at 540 nm, and the trypanosome infection rate of the test solution added group and control group were calculated.
(§1) Growth inhibition rate (%)={1−(b−a)/(c−a)}×100 • a: early infection rate • b: infection rate when test solution was added • c: infection rate of the control

For data set [2], the system named is Leishmania donovani (MHOM/ET/67/L82 strain). Kind of data set: Leishmania protozoa growth inhibition screening test. The conditions noted are these: Leishmania donovani; Table 5; amastigotes, 72 hours, Alamar Blue; read-out: 50% Growth inhibition concentration Leishmania donovani. The format is cell-based. Here is the method:
In the present experiment, Leishmania donovani (MHOM/ET/67/L82 strain) was used. Protozoa was subcultured in Syrian Golden hamster, from which an amastigote was obtained. In the experiment, SM medium supplemented with 10% heat-treated bovine fetal serum was used, which was adjusted to pH 5.4, and cultured in an atmosphere of 5% CO2 concentration, at 37° C.
The compounds of the present invention to be used in the present test and the positive control drug (miltefosine) were dissolved in DMSO to make a test solution of a predetermined concentration.
After adding a medium containing a predetermined number of protozoa to wells of a 96-well culture'plate and pre-treating, concentration of the amastigote was measured with CASY cell analysis system (Scharfe, Germany). Then, test solution containing a drug of a predetermined concentration or a drug-free DMSO was added. Test solutions were taken by duplicates.
After culturing the culture plate for 72 hours in an incubator, growth inhibition activity was tested. Test was conducted as follows. 10 μL of Alamar Blue aqueous solution was added to each well, and the resultant was further cultured for 2 hours. Next, the culture plate was placed on a fluorescent micro-plate reader (Spectramax Gemeni XS; US Molecular Device), radiated at an excited wavelength of 536 nm. Fluorescent intensity was measured at 588 nm, and infection rate of leishmania protozoa of the test solution added group and control was calculated.
as §1
In general terms: Resazurin is reduced to fluorescent resorufin, in cell work by metabolically active cells.

The subject of the next data set is Plasmodium falciparum K1. Kind of data set: Chloroquine resistant-Plasmodium falciparum growth inhibition screening test. It counts as cell-based. The conditions noted are these: EC50 against rat L6 cells / EC50 against P. falciparum K1. The method, then: In the present experiment, protozoa of plasmodium falsiparum K1 strain was used. RPMI-1640 medium sterilized with a filter to which human serum was added to be 5%, was used in the experiment. Malarial parasites were cultured under 3% O2 concentration, 4% CO2 concentration, 93% N2 concentration, and at a temperature of 37° C.
The compounds of the present invention to be used in the present test and the positive control drug (chloroquine) were dissolved in DMSO to make a test solution of a predetermined concentration. Cultured malaria parasite infected-erythrocytes were collected by centrifugation, and diluted with non-infected erythrocyte so that the early infection rate was 0.15%. Hematocrit level at that time was 2.5%.
200 μL of malaria infected solution was added to wells of a 96-well culture plate, and adjusted by adding a test solution containing drug of a predetermined concentration or a drug-free DMSO. Test solutions were taken by duplicates.
[…] […] Radiation intensity was measured with a beta plate liquid scintillation counter (Wallac), and malarial parasite infection rates of the test solution added group and the control group were calculated.
Growth inhibition rate (%)={1−(b−a)/(c−a)}×100 • a: early infection rate • b: infection rate when test solution was added • c: infection rate of the control 3. Growth Inhibition Test of Rat L6 Cells
Antimalarial activity of a sample was estimated from EC50 values of the sample against chloroquine resistant-Plasmodium falciparum and rat L6 cells. […] It means that the larger the value of the selection toxity, the less the risk of the side effect is. Chemotherapy index=(EC50 value of a sample against rat L6 cells)/(EC50 value of a sample against chloroquine resistant-Plasmodium falsiparum)

Data set [3] deals with Trypanosoma brucei rhodesiense (STIB 900 strain). Kind of data set: African trypanosome protozoa growth inhibition screening test. It counts as cell-based. Particulars: Table 5, 72 hours, Alamar Blue, read-out: 50% Growth inhibition concentration Trypanosoma brucei rhod. The method, then:
In the present experiment, protozoa of Tripanosoma brucei rhodensiense (STIB 900 Strain), a trypomastigote living in blood stream, was used. The medium used in the experiment was a MEM medium which was sterilized with a filter and supplemented with 25 mM N-2-hydroxyeihylpiperazine-2-ethansulfonic acid (HEPES), 1 g/L glucose, 1% MEM non-essential amino acid, 0.2 mM 2-mercaptoethanol, 2 mM sodium pyruvate, 0.1 mM hypoxanthine, and 15% heat-treated horse serum. The protozoa was cultured in an atmosphere of CO2 concentration 5%, at a temperature of 37° C.
The compounds of the present invention to be used in the present test and the positive control drug (melarsoprol) were dissolved in dimethylsulfoxide (DMSO) to make a test solution of a predetermined concentration.
A medium containing 8×10^3 protozoa, and a test solution containing a drug of a predetermined concentration of a drug-free DMSO were added to wells of a 96-well culture plate, and subsequently, medium was added so that the amount in each well becomes 100 μL. Test solutions were taken by duplicates.
After culturing the culture plate for 72 hours in an incubator, growth inhibition activity was tested. Test was conducted as follows. 10 μL of Alamar Blue aqueous solution was added to each well, and the resultant was further cultured for 2 hours. Next, the culture plate was placed on a fluorescent micro-plate reader (Spectramax Gemeni XS; US Molecular Device), radiated at an excited wavelength of 536 nm. Fluorescent intensity was measured at 588 nm, to calculate the trypanosome protozoa infected rate of the test solution added-group, and of the control group.
as §1

In another data set the test system is Rat L6 cells. The experiment in a line: Growth inhibition test of rat L6 cells. Particulars: Table 1, 72 hours, Alamar Blue, read-out: 50% Growth inhibition concentration Cytoxicity L6. The format is cell-based. Here is the method: Rat derived-L6 cells (rat skeletal myoblast cell) were used. A medium, RPMI1640 medium was supplemented so that L-glutamin (200 mM) is 1%, and fetal bovine serum 10%, and the medium was cultured under CO2 concentration 5%, at 37° C.
The compounds of the present invention and the control drugs to be used in the test were dissolved in DMSO, to make a test solution of a predetermined concentration.
Pre-culture was conducted and medium containing cells which have entered the logarithmic growth phase was taken to wells of a 96-well culture plate. Then, a test solution containing drug of a predetermined concentration or a drug-free DMSO was added. Test solutions were taken by duplicates.
Culture plate was cultured for 72 hours in an incubator, to test the growth inhibition activity. Test was conducted as follows. 10 μL of Alamar Blue aqueous solution was added to each well, and the resultant was further cultured for 2 hours. Next, the culture plate was placed on a fluorescent micro-plate reader (Spectramax Gemeni XS; US Molecular Device), radiated at an excited wavelength of 536 nm. Fluorescent intensity was measured at 588 nm, and residual rate of L6 cells of the test solution added group, and that of the control was calculated.
Growth inhibition rate (%)={(C−A)/(B−A)}×100 • A: Primary cell count • B: cell count of control, 3 days after • C: cell count of wells added with a sample, 3 days after 4. Determination of Drug Efficacy Against Chloroquine Resistant-Plasmodium

The compound `CCN(CC)c1ccc2nc3c4ccccc4c(=Nc4ncccn4)cc-3oc2c1` [Compound 1L, N,N-Diethyl-5-(pyrimidin-2-ylimino)-5H-benzo[a]phenoxazin-9-amine] showed a melting point of 208 to 210 °C. The EC50 in data set [1] came to 1.78 µg/mL (≈ 4.5 µM). Moreover, in data set [2], the EC50 stood at 0.662 µg/mL (≈ 1.67 µM). Moreover, the Selective toxicity in the data set with Plasmodium falciparum K1 was 2700. Further, the EC50 in data set [3] was 0.804 µg/mL (≈ 2.03 µM). The EC50 in the data set with Rat L6 cells is 5.4 µg/mL (≈ 13.7 µM).
With `CCN(CC)c1ccc2nc3c4ccccc4c(=Nc4nc5ccc(Cl)cc5s4)cc-3oc2c1` [Compound 1I, 5-(6-Chlorobenzo[d]thiazol-2-ylimino)-N,N-diethyl-5H-benzo[a]phenoxazin-9-amine], the melting point lay in the range of 229 to 231 °C. Further, the EC50 in data set [1] was over 30 µg/mL. The EC50 in data set [2] is 19.6 µg/mL (≈ 40.5 µM). This compound returned a Selective toxicity in the data set on Plasmodium falciparum K1 of over 210. For the same compound, the EC50 in data set [3] stood at 44.8 µg/mL (≈ 92.4 µM). Besides, the EC50 in the data set with Rat L6 cells was over 90 µg/mL.
For `CCN(CC)c1ccc2nc3c4ccccc4c(=Nc4cc(C)on4)cc-3oc2c1` [Compound 1J, N,N-Diethyl-5-(5-methylisoxazol-3-ylimino)-5H-benzo[a]phenoxazin-9-amine], the melting point was 195 to 196 °C. Also, the EC50 in data set [1] came to 21.8 µg/mL (≈ 54.8 µM). For the same compound, the EC50 in data set [2] was 1.86 µg/mL (≈ 4.67 µM). Further, the Selective toxicity with Plasmodium falciparum K1 is 7360. Further, the EC50 in data set [3] stood at 11.8 µg/mL (≈ 29.6 µM). In addition, the EC50 with Rat L6 cells was 36.8 µg/mL (≈ 92.4 µM).
Consider `CCN(CC)c1ccc2nc3c4ccccc4c(=Nc4nc5ccc(OC)cc5s4)cc-3oc2c1` [Compound 1M, N,N-Diethyl-5-(6-methoxybenzo[d]thiazol-2-ylimino)-5H-benzo[a]phenoxazin-9-amine], for which the melting point lay within 197 to 198 °C. Further, the EC50 in data set [1] was over 30 µg/mL. Further, in data set [2], the EC50 was found to be 13.8 µg/mL (≈ 28.7 µM). Besides, in the data set on Plasmodium falciparum K1, the Selective toxicity was determined as 1492. In addition, the EC50 in data set [3] came to 40 µg/mL (≈ 83.2 µM). In addition, the EC50 in the data set with Rat L6 cells was 80.6 µg/mL (≈ 168 µM).
In turn, `CCN(CC)c1ccc2nc3c4ccc(Br)cc4c(=Nc4ccncc4)cc-3oc2c1` [Compound 1G, 3-Bromo-N,N-diethyl-5-(pyridin-4-ylimino)-5H-benzo[a]phenoxazin-9-amine] had a melting point of 269 to 271 °C. Besides, the EC50 in data set [1] is over 30 µg/mL. Moreover, the EC50 in data set [2] stood at 19.1 µg/mL (≈ 40.4 µM). This compound came in with a Selective toxicity in the data set with Plasmodium falciparum K1 of over 18000. Further, in data set [3], the EC50 came out at 61 µg/mL (≈ 129 µM). Moreover, in the data set on Rat L6 cells, the EC50 is over 90 µg/mL.
With `CCN(CC)c1ccc2nc3c4ccccc4c(=Nc4ncc(Cl)cc4Cl)cc-3oc2c1` [Compound 1K, 5-(3,5-Dichloropyridin-2-ylimino)-N,N-diethyl-5H-benzo[a]phenoxazin-9-amine], the melting point lay within 192 to 193 °C. Besides, the EC50 in data set [1] is over 30 µg/mL. In data set [2], the EC50 was determined as 8.13 µg/mL (≈ 17.5 µM). Moreover, in the data set with Plasmodium falciparum K1, the Selective toxicity was 2866. In addition, the EC50 in data set [3] came to 38.6 µg/mL (≈ 83.3 µM). The EC50 with Rat L6 cells is 83.1 µg/mL (≈ 179 µM).
